Measurements taken from patent publication US20140057895A1, “INDAZOLE- AND PYRROLOPYRIDINE-DERIVATIVE AND PHARMACEUTICAL USE THEREOF” (priority 2011, published 2014).

Tests used:
5-HT4 receptor = target: T1, 5-HT4 receptor (Cavia porcellus, UniProt O70528); test: Test Example 1: Serotonin 4 (5-HT4) receptor binding assay, [3H]-GR113808, guinea pig striatum membranes (Table 96); settings: Guinea pig 5-HT4 receptor binding assay, [3H]-GR113808, striatum membranes; mean value of each group
T1 construct: striatum was isolated which was cryopreserved at −80° C. until use; from tissue; host or cells: guinea pig (Slc-Hartley) striatum membranes

[1] = test system: scopolamine-induced cognitive impairment; test: Example 5: Y-maze test, scopolamine-induced cognitive impairment, single-agent administration (Table 101); type: in vivo, ddY mouse; settings: p.o., scopolamine-treated, # = P<0.05 vs scopolamine group
Source text: Thus, scopolamine-induced cognitive impairment model, one of the AD-like model, has been used to predict pharmacodynamic signals of putative procognitive compounds, utilizing the acetylcholinesterase inhibitor donepezil for illustration (See, Citations 1 and 2). The present inventors investigated the effect of each compound on reversal of scopolamine-induced deficits in performance of Y-maze test in mice, and they also investigated adjunctive effect of compounds with donepezil on reversal of deficits induced by scopolamine and MK801 in mice.
Used animal: ddY mouse (SLC)
In the experiments, the mice were grouped in the same way using Stat Preclinica (Version 1.03295; Takumi Information Technology Inc.). The selected mice were divided into 5 to 7 groups of 7 to 12 mice using the “completely randomization design by the single variable” program (Analytical program version 1.0.7), with body weight on the testing day. After grouping, p values for Bartlett's test and ANOVA across all groups were greater than 0.2, indicating no significant difference in this parameter among the groups.
The required amount of each compound was weighed and put into a glass homogenizer. […]
The required amount of scopolamine and MK801 were weighed, and saline was added to it to give 0.3 mg/mL and 0.015 mg/mL solution, respectively.
90 Min before the test, the mice were orally administered each compound, donepezil, and vehicle (0.5% methyl cellulose, 10 mL/kg). After 60 min, memory impairment was induced by administering scopolamine (0.6 mg/kg, s.c.) with (co-administration) or without (mono-administration) MK801 (0.03 mg/kg, s.c.). The control group received saline (2 mL/kg, s.c.) rather than scopolamine and MK801.
The Y-maze used herein is a three-arm maze with equal angles between all arms. The mazefloor and walls were constructed from black acrylic resin. The mice were initially placed within one arm, and the sequence and number of arm entries were recorded manually for each mouse over an 8-min period.
Data were processed and analyzed with Microsoft® Office Excel 2003. The alternation behavior was defined as entries into all three arms on consecutive occasions. The percent alternation behavior in each animal was calculated using the following formula, and rounded to one decimal place.
Alternation behavior(%)=[actual alternation/(total arm entries−2)]×100
Restoration ratio of alternation behavior (%) in each animal was calculated using the following formula, and rounded to one decimal place.
Restoration ratio of alternation behavior in each animal (%)=y Alternation behavior in each animal (%)=x Mean of alternation behavior in vehicle-treated group (group No. 1) (%)=A Mean of alternation behavior in scopolamine-treated group (group No. 2) (%)=B
Data were expressed as the mean of the percent alternation behavior, the number of total arm entries and the restoration ratio of alternation behavior.
Values of Y-maze tests are expressed as mean of alternation behavior (n=7−12).
Alternation behaviors in the scopolamine-treated groups were compared to those in the control groups using Wilcoxon rank sum test (Stat preclinical; Version 1.03295; Takumi Information Technology Inc.) with a two-sided significance level of 0.05.
Restoration of alternation behavior was analyzed using Stat Preclinica. Alternation behaviors in the vehicle-treated group were compared to those in the test substance-treated groups using non-parametric Dunnett multiple comparison test (Analytical program version 1.0.2) with a two-sided significance level of 0.05.

[2] = target: T2, Human 5-HT4 receptor (5-HT4b) (Homo sapiens, UniProt Q13639); test: Test Example 3: Human 5-HT4 receptor binding assay, membranes of CHO-K1 cells stably expressing 5-HT4b receptors (Table 99); settings: mean value of each group
T2 construct: expressed in transfected cells; membrane preparation
How it was run: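 Radioligand displacement: [3H]-GR113808 (0.1 nM) bound to CHO-K1 5-HT4b membranes for 30 min at 37 °C in Hepes buffer (50 mM, pH 7.4). Specific binding is total minus that with 30 μM serotonin; filter-bound radioactivity counted, IC50 derived from percent inhibition.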

T2 sequence (Q13639 whole entry): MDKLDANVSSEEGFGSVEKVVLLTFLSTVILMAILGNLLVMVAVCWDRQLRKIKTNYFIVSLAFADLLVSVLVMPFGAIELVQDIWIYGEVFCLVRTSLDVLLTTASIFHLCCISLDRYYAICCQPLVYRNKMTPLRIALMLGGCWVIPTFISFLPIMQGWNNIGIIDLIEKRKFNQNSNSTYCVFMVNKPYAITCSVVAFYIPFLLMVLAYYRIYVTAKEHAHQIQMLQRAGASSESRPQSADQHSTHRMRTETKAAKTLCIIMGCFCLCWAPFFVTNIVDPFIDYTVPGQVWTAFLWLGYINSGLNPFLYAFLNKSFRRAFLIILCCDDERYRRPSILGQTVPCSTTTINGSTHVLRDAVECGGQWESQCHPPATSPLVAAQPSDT
T1 sequence (O70528 whole entry): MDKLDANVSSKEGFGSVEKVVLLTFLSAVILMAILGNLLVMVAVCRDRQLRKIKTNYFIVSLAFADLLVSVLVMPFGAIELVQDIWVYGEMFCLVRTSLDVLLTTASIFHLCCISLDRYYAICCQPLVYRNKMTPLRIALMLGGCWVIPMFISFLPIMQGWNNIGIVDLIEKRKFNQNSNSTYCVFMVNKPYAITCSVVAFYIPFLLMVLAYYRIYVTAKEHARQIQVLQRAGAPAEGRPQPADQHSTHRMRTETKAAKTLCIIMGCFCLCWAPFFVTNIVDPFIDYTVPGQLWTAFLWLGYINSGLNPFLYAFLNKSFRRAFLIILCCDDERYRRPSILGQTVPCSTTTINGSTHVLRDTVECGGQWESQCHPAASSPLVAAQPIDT

Question: Which results are given for `CC(=O)N1CCC(N2CCC(c3nc(-n4nc(C(C)C)c5cccc(F)c54)no3)CC2)CC1.Cl` [Example 232, 1-(4-{3-[7-fluoro-3-(propan-2-yl)-1H-indazol-1-yl]-1,2,4-oxadiazol-5-yl}-1,4′-bipiperidin-1′-yl)ethanone hydrochloride]?
Answer: IC50 (5-HT4 receptor): < 20 nM; Alternation behavior (%) ([1]; compound 1 mg/kg): 66.3^# %; Alternation behavior (%) ([1]; compound 3 mg/kg): 63.0^# %; Alternation behavior (%) ([1]; compound 10 mg/kg): 53.6%; IC50 [2]: < 20 nM

Question: With `CC(C)c1nn(-c2noc(C3CCN(C4CCN(C(=O)CO)CC4)CC3)n2)c2c(F)cccc12` [Example 242, 1-(4-{3-[7-fluoro-3-(propan-2-yl)-1H-indazol-1-yl]-1,2,4-oxadiazol-5-yl}-1,4′-bipiperidin-1′-yl)-2-hydroxyethanone] as the molecule, how does the IC50 (5-HT4 receptor) read?
Answer: < 20 nM

Question: And the “Alternation behavior (%)” value ([1]; compound 1 mg/kg)?
Answer: 63.4^# %

Question: And the “Alternation behavior (%)” value ([1]; compound 3 mg/kg)?
Answer: 62.9^# %

Question: And the “Alternation behavior (%)” value ([1]; compound 10 mg/kg)?
Answer: 57.5%

Question: And the IC50 [2]?
Answer: < 20 nM
